This is an account of results in patent US7220732B2, “Compounds useful as photodynamic therapeutic agents” (priority 2002, dated 2007).

pEC50: −log10 of the molar value. Like-named read-outs stand apart in the source and are kept apart here.

Usually pEC50 stands for −log10 of the EC50, conventionally taken in molar units.

Data set [1] can be described thus: Fluorescence emission and fluorescence quantum yield. The settings on record: for Φf (fluorescence quantum yield): relative to magnesium tetra-tert-butylphthalocyanine in CHCl3, room temperature. The data set is classed as physicochemical. An excerpt: (§1) The absorption bands of each photosensitiser are relatively insensitive to solvent changes with solutions in water/Cremophor resulting in a further bathochromic shift of ˜10 nm (Table 1). Excitation of chloroform solutions of the 2a and 4a at 635 nm gave a fluorescence band at 672 and 673 nm respectively (FIG. 2, Table 2). […] The reduction in fluorescence quantum yield in the series would imply more efficient population of the triplet excited state which would benefit singlet oxygen production. The ability of 2 and 4 to produce singlet oxygen would be a prerequisite to them being potential PDT agents.

Data set [2] in a line: Spectroscopic absorbance properties. In kind it is physicochemical.
Description: as §1

For the next data set, the system named is MRC5 cells. Put plainly: Light/dark cytotoxicity study (MTT) in MRC5 cells. The data set is classed as cell-based. The procedure: (§2) MRC5 and HeLa cell cultures were maintained in MEM (minimum essential medium) containing 10% (v/v) foetal calf serum (FCS), 1% (v/v) non-essential amino acids, 2 μg/ml Fungizone (Trade Mark) (amphotericin B), 50 μg/ml penicillin, 50 μg/ml streptomycin, 20 mM HEPES and 1% (v/v) L-Glutamine. Cells were passaged at least twice before use in the cytotoxicity assays.
(§3) Stock haematoporphyrin water-dimethyl sulphoxide (DMSO) (100:1 (v/v)) solutions were diluted with MEM containing 10% FCS. Cells were seeded at 5,000 cells/well in 96-well plates and incubated for 24 hr at 37° C. The 24 hour incubation period was chosen having regard to the slower uptake of haernatoporphyrin in the absence of Cremophor, when compared to the compounds of the present invention in the presence of Cremophor (see below). Cells were then incubated with haematoporphyrin in the dark for 24 hr at 37° C. The haematoporphyrin laden culture medium was then removed by filtration, the cells were washed with PBS and fresh culture medium was added to each well. A 500 W light source, passed through a red glass and water filter barrier, (to ensure cells are irradiated with light of wavelength greater than 570 nm) was used to irradiate the plates for both 15 and 30 min. Following irradiation, the cells were incubated for a further 48 hr at 37° C. before being assessed for cell survival.
(§4) Stock 2a or 2b water-Cremophor EL (Trade Mark—CAS 61791-12-6) (1:250 (v/v)) solutions were diluted with MEM containing 10% FCS. Cells were seeded at 5,000 cells/well in 96-well plates and incubated for 24 hr at 37° C. Cells were then incubated with 2a or 2b in the dark for 3 hr at 37° C. The 3 hour incubation period was chosen to reflect the faster cellular uptake of 2a or 2b in the presence of Cremophor, when compared to the cellular uptake of haematoporphyrins in the absence of Cremophor. The 2a or 2b laden culture medium was then removed by filtration, the cells were washed with PBS and fresh culture medium was added to each well. The plates were then irradiated using a 500 W light source passed through a red glass and water filter barrier, (thereby ensuring cells are irradiated with light of wavelength greater than 570 nm) for both 15 and 30 min.
(§5) Following irradiation, the cells were incubated for a further 48 hr at 37° C. before being assessed for cell survival. The dark toxicity of compounds of the present invention was also assessed in each experiment.
(§6) Cell viability was estimated using the standard MTT (microtiter tetrazolium) assay. This assay measures mitochondrial dehydrogenase activity and is based on the reduction of a soluble yellow tetrazolium salt to a blue, insoluble MTT formazan product by this enzyme. The subsequent colour change produced by viable cells was quantified using a plate reader (VICTOR^2 1420 multilabel HTS counter, Wallac). As mentioned above under the headings “Cytotoxicity”, the cells are incubated at 37° C. for 48 hours, following which the MTT solution was added to the cells at a final concentration of 0.5 mg/ml and incubated for 3 hr at 37° C. The MTT solution was then removed by filtration and 100 μl DMSO was added to each well in order to lyse the cells and release the formazan dye. The plates were read 1 hr later at 540 nm.
(§7) Prism (Trade Mark) […] was used to graph the data obtained from the MTT assays and the uptake/efflux experiments. This programme allows non-linear regression analysis and the generation of sigmoidal dose response curves. Prism (Trade Mark) also automatically calculates EC50 values.
(§8) Light toxicity assays were also carried out as described above under “Assay methods” in HeLa and MRC5 cells for haematoporphyrin (FIGS. 9 and 10), 2a (FIGS. 11 and 12) and 2b (FIGS. 13 and 14).

The test system of another data set is HeLa cells. Put plainly: Light/dark cytotoxicity study (MTT) in HeLa cells. In kind it is cell-based. Here is the method: as §2, §3, §4, §5, §6, §7, §8
[3] abbreviates: CHCl3, room temperature, excitation at 635 nm.
Where [4] appears, read: Water/Cremophor (100:1), room temperature.

On to `F[B-]1(F)n2c(-c3ccccc3)cc(-c3ccc(Br)cc3)c2N=C2C(c3ccc(Br)cc3)=CC(c3ccccc3)=[N+]21` [Compound 5a], for which the “λ em (fluorescence band)” value in data set [1] (setting [3]) stood at 680 nm. Besides, in data set [2] (CHCl3, room temperature), the “ε (molar extinction coefficient)” value is listed as 74,000 M^−1cm^−1 and the “λmax (absorbance)” value was 658 nm. For the same compound, in data set [2] (setting [4]), the “λmax (absorbance)” value was 667 nm.

Consider `COc1ccc(C2=[N+]3C(=Nc4c(-c5ccccc5)cc(-c5ccc(OC)cc5)n4[B-]3(F)F)C(c3ccccc3)=C2)cc1` [Compound 2b], for which the “EC50 (dark toxicity)” value in the data set on MRC5 cells (MRC5, 0 J/cm^2 light (no light)) is reported as “un-measurable”. Further, the pEC50 is 3.66 with MRC5 cells (MRC5, 8 J/cm^2 light (15 mins from a 500 W light source), read-out: EC50); 4.66 with MRC5 cells (MRC5, 16 J/cm^2 light (30 mins from a 500 W light source), read-out: EC50); 4.21 with HeLa cells (0 J/cm^2 light (no light), read-out: EC50 (dark toxicity)); 4.28 with HeLa cells (8 J/cm^2 light (15 mins from a 500 W light source), read-out: EC50); 4.60 in the data set with HeLa cells (16 J/cm^2 light (30 mins from a 500 W light source), read-out: EC50). Further, the “λ em (fluorescence band)” value is reported as 715 nm in data set [1] (setting [3]) and 727 nm in data set [1] (setting [4]). Besides, the “Φf (fluorescence quantum yield)” value in data set [1] turned out to be 0.36. In addition, the “fwhm (full width at half maximum)” value was 55 nm in data set [2] (CHCl3, room temperature) and 57 nm in data set [2] (setting [4]). Also, in data set [2] (CHCl3, room temperature), the “ε (molar extinction coefficient)” value is 85,000 M^−1cm^−1. Moreover, the “λmax (absorbance)” value in data set [2] (CHCl3, room temperature) is on record as 688 nm; in data set [2] (setting [4]) it was 696 nm.

On to `CC1=C(CCC(=O)O)c2cc3[nH]c(cc4nc(cc5[nH]c(cc1n2)c(C)c5C(C)O)C(C)=C4C(C)O)c(C)c3CCC(=O)O` (stereo not shown) [haematoporphyrin, reference compound], for which the negative logarithm of the EC50 (pEC50) is 4.38 in the data set on MRC5 cells (Homo sapiens, light or radiation study, 0.25 h, MRC5, 8 J/cm^2 light (15 mins from a 500 W light source), read-out: EC50); 4.54 with MRC5 cells (Homo sapiens, light or radiation study, 0.5 h, MRC5, 16 J/cm^2 light (30 mins from a 500 W light source), read-out: EC50); 2.85 with MRC5 cells (Homo sapiens, light or radiation study, MRC5, 0 J/cm^2 light (no light), read-out: EC50 (dark toxicity)); 4.11 in the data set with HeLa cells (Homo sapiens, light or radiation study, 0 J/cm^2 light (no light), read-out: EC50 (dark toxicity)); 4.82 in the data set on HeLa cells (Homo sapiens, light or radiation study, 0.25 h, 8 J/cm^2 light (15 mins from a 500 W light source), read-out: EC50); 4.80 in the data set with HeLa cells (Homo sapiens, light or radiation study, 0.5 h, 16 J/cm^2 light (30 mins from a 500 W light source), read-out: EC50).

`F[B-]1(F)n2c(c(-c3ccccc3)c(Br)c2-c2ccccc2)N=C2C(c3ccccc3)=C(Br)C(c3ccccc3)=[N+]21` [Compound 4a]: the “λ em (fluorescence band)” value in data set [1] (setting [3]) came out at 673 nm. In data set [1] (setting [4]), the “λ em (fluorescence band)” value stood at 679 nm. Besides, the “Φf (fluorescence quantum yield)” value in data set [1] came to 0.012. Besides, in data set [2] (CHCl3, room temperature), the “fwhm (full width at half maximum)” value was found to be 47 nm, the “ε (molar extinction coefficient)” value is 79,000 M^−1cm^−1 and the “λmax (absorbance)” value was determined as 650 nm. In addition, in data set [2] (setting [4]), the “fwhm (full width at half maximum)” value is on record as 57 nm and the “λmax (absorbance)” value is 651 nm.

For the compound `COc1ccc(C2=[N+]3C(=Nc4c(-c5ccccc5)c(Br)c(-c5ccc(OC)cc5)n4[B-]3(F)F)C(c3ccccc3)=C2Br)cc1` [Compound 4b], the “λ em (fluorescence band)” value in data set [1] (setting [3]) was found to be 714 nm. The “λ em (fluorescence band)” value in data set [1] (setting [4]) is listed as 719 nm. In addition, in data set [1], the “Φf (fluorescence quantum yield)” value was determined as 0.10. In data set [2] (CHCl3, room temperature), the “fwhm (full width at half maximum)” value is listed as 57 nm, the “ε (molar extinction coefficient)” value is given as 75,000 M^−1cm^−1 and the “λmax (absorbance)” value came to 679 nm. Also, in data set [2] (setting [4]), the “fwhm (full width at half maximum)” value is reported as 86 nm and the “λmax (absorbance)” value is on record as 685 nm.
